One test concerns normal human fibroblasts. The test can be described thus: Cytotoxicity assay (7-AAD viability, flow cytometry), normal fibroblasts. The test is classed as cell-based. The settings on record: Homo sapiens, Fibroblast, mean ± SE, at least three experiments in duplicate. Background: Flow cytometry measures light scatter and fluorescence of single cells or particles in a stream.
Test [1] has as its system K562 (chronic myeloid leukemia) cells. The test can be described thus: Cytotoxicity assay (7-AAD viability, flow cytometry), K562. The test is classed as cell-based, human. The settings on record: Homo sapiens, K562, mean ± SE, at least three experiments in duplicate; viable cells; read-out: IC50 K562. The method, boiled down: (§1)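 Suspension lines in RPMI 1640 with 10% FBS at 37 °C, 5% CO2, treated with compounds at 1, 5, 10, 15, 30 and 60 μM. Live/dead status by 7-AAD staining (15 min, room temperature, dark) read on flow cytometer, 488 nm excitation, 675/30 nm emission.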

Test [2] has as its system U937 (histiocytic lymphoma) cells. Nature of the test: Cytotoxicity assay (7-AAD viability, flow cytometry), U937. The class given is cell-based, human. The settings on record: Homo sapiens, U-937, mean ± SE, at least three experiments in duplicate; viable cells; read-out: IC50 U937. Summed up: as §1

Counter-ions that a name gives are not always drawn.

In the case of `CC(=O)O[C@H]1CC[C@@]2(C)C(CC[C@]3(C)C2CCC2C4C(C(C)C)CC[C@]4(C(=O)OCC(CO)(CO)NC(=N)N)CC[C@]23C)C1(C)C` (stereo partly drawn) [Compound 15c, 3β-[2-Guanidine-3-hydroxy-2-(hydroxymethyl)propyl]-3-O-acetyl-lupane-28-oate hydrochloride], the IC50 (commonly the concentration at which inhibition is half-maximal) in the test with normal human fibroblasts is 27 ± 0.14 µM; in test [1] it was 2.3 ± 0.34 µM; in test [2], 15 ± 0.23 µM.

Consider `CC(=O)O[C@H]1CC[C@@]2(C)C(CC[C@]3(C)C2CCC2C4C(C(C)C)CC[C@]4(C(=O)OCC(N)(CO)CO)CC[C@]23C)C1(C)C` (stereo partly drawn) [Compound 15, 3β-[2-Amino-3-hydroxy-2-(hydroxymethyl)propyl]-3-O-acetyl-lupane-28-oate], for which the IC50 with normal human fibroblasts came out at 31 ± 0.29 µM; in test [1] it was 2.1 ± 0.13 µM; in test [2], 6.6 ± 0.23 µM.

The values are drawn from paper PMC6278366, “Synthesis and Evaluation of Anticancer Activities of Novel C-28 Guanidine-Functionalized Triterpene Acid Derivatives” (Molecules, 2018).
